One assay concerns the target Rho-A (Homo sapiens (Human), UniProt P61586). Nature of the assay: Rho inhibition assay (labeled GTP). The format is binding. Conditions: read-out: Rho-A % Inh.
The next assay has as its target Rac-1 (Homo sapiens (Human), UniProt P63000). Nature of the assay: Rac inhibition assay (labeled GTP). The settings on record: read-out: Rac-1 % Inh. The format is binding.
In assay [1] the target is KRas G12D/Q61H double mutant (Homo sapiens (Human), UniProt P01116, G12D/Q61H). Nature of the assay: Ras GTP binding domain inhibition assay (labeled GTP). Conditions: at 20 μM; read-out: KRas G12D Q61H % Inh. The gist of the method:
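Labelled-GTP binding: plate-captured His-KRas protein was pre-exposed to compound for 3 h at room temperature (single 20 μM point or dilution series, 1% DMSO, Tris pH 7.5/MgCl2/DTT buffer). Cy3- or Cy5-GTP was then added for 45 min. Washed wells were read for retained fluorescence to give inhibition or IC50.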

Chain of Rho-A (P61586 whole entry): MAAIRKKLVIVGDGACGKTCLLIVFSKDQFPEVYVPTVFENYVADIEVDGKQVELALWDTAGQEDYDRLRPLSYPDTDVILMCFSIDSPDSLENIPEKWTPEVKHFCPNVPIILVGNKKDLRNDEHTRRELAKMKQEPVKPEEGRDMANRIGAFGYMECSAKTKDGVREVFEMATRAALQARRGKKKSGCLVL
Chain of KRas G12D/Q61H double mutant (P01116-2 other isoform, or with tags, fused parts or gaps G12D/Q61H): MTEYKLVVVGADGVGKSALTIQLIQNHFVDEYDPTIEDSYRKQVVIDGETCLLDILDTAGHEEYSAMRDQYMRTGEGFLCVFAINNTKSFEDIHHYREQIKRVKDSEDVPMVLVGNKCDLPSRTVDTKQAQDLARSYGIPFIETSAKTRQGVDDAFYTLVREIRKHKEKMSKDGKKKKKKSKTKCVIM

On to `O=C(NCCc1ccc(O)c(O)c1)c1csc2nc(-c3ccccn3)nc(N3CCOCC3)c12` [drawing 3674], for which the inhibition at 20 µM on Rho-A is 25 to 50%; on Rac-1, 25 to 50%; in assay [1], 0%.
Regarding `Oc1nc(-c2ccccn2)nc2cc(-c3ccc(-c4ccccc4)cc3)sc12` [drawing 3877], the figures for the inhibition at 20 µM (on Rho-A; at Rac-1; in assay [1]) were 1 to 25%, 0% and 1 to 25%, respectively.
On to `CC(c1ccccc1)N1CCN(C(=O)c2csc3c(O)nc(-c4ccccn4)nc23)CC1` (stereo not drawn) [drawing 3693], for which the figures for the inhibition at 20 µM (at Rho-A; on Rac-1; in assay [1]) were 76 to 100%, 76 to 100% and 51 to 75%, respectively.
With `COC(=O)c1nc(-c2ccccn2)nc(O)c1O` [drawing 3865], the inhibition at 20 µM on Rho-A was in the range of 76 to 100%; on Rac-1, 76 to 100%; in assay [1] it was 51 to 75%.
Turning to `COc1nc(-c2ccccn2)nc(Oc2cccc(C(F)(F)F)c2)c1OC` [drawing 3870], the figures for the inhibition at 20 µM (at Rho-A; at Rac-1; in assay [1]) were 0%, 1 to 25% and 1 to 25%, respectively.
`COC(=O)c1sc2c(O)nc(-c3ccccn3)nc2c1C` [drawing 3795]: the results for the inhibition at 20 µM (at Rho-A; on Rac-1; in assay [1]) were 51 to 75%, 51 to 75% and 25 to 50%, respectively.
As to `Cc1sc2nc(-c3ccccn3)nc(N)c2c1Br` [drawing 3803], the inhibition at 20 µM on Rho-A lay within 51 to 75%; on Rac-1, 25 to 50%; in assay [1], 25 to 50%.
On to `COC(=O)c1cc2nc(-c3ccccn3)nc(O)c2s1` [drawing 3779], for which the inhibition at 20 µM is 76 to 100% on Rho-A, 51 to 75% at Rac-1 and 51 to 75% in assay [1].
As for `COCC(C)Nc1nc(-c2ccccn2)nc(C(=O)NCCCc2c[nH]cn2)c1Oc1ccccc1` (stereo not drawn) [drawing 3868], the inhibition at 20 µM at Rho-A lay in the range of 25 to 50%; at Rac-1 it was 25 to 50%; in assay [1], 1 to 25%.
On to `O=C(c1csc2c(O)nc(-c3ccccn3)nc12)N1CCOC(c2cccc(Cl)c2)C1` (stereo not drawn) [drawing 3659], for which the results for the inhibition at 20 µM (at Rho-A; at Rac-1; in assay [1]) were 51 to 75%, 1 to 25% and 1 to 25%, respectively.
As for `COCCNc1nc(-c2ccccn2)nc(-c2cccc(OCCN(C)C)c2)c1Oc1ccccc1` [drawing 3847], the inhibition at 20 µM (on Rho-A; on Rac-1; in assay [1]) was 1 to 25% throughout.
Regarding `COc1cc(CCNC(=O)c2csc3nc(-c4ccccn4)nc(N4CCOCC4)c23)ccn1` [drawing 3636], the inhibition at 20 µM is 25 to 50% at Rho-A, 51 to 75% at Rac-1 and 1 to 25% in assay [1].
The like results for `CC(C)(C(=O)Nc1ccnc(-c2ccccn2)n1)c1ccc(C#N)cc1` [drawing 3640] were, in that order, 25 to 50%, 51 to 75% and 1 to 25%.
Turning to `COc1ccc(CCN(C)C(=O)c2csc3nc(-c4ccccn4)nc(N4CCOCC4)c23)cn1` [drawing 3635], the inhibition at 20 µM is 25 to 50% at Rho-A, 25 to 50% at Rac-1 and 0% in assay [1].
Take `Cc1ccc(-c2csc3c(O)nc(-c4ccccn4)nc23)cc1` [drawing 3878]: the inhibition at 20 µM on Rho-A was 25 to 50%; on Rac-1, 0%; in assay [1], 1 to 25%.
In the same order, the values of `O=C(c1csc2c(O)nc(-c3ccccn3)nc12)N1CCN(c2cccc(F)c2)CC1` [drawing 3642] are 76 to 100%, 76 to 100% and 25 to 50%.
With `O=C(c1csc2c(O)nc(-c3ccccn3)nc12)N1CCNC(c2ccccc2F)C1` (stereo not drawn) [drawing 3665], the inhibition at 20 µM on Rho-A was in the range of 76 to 100%; at Rac-1 it was 76 to 100%; in assay [1], 25 to 50%.
On to `O=C(c1csc2c(O)nc(-c3ccccn3)nc12)N1CCN(Cc2ccc(O)c(Cl)c2)CC1` [drawing 3654], for which the inhibition at 20 µM was 76 to 100% on Rho-A, 76 to 100% at Rac-1 and 25 to 50% in assay [1].
For `Nc1nc(-c2ccccn2)nc2scc(C(=O)O)c12` [drawing 3778], the results for the inhibition at 20 µM (at Rho-A; on Rac-1; in assay [1]) were 51 to 75%, 51 to 75% and 25 to 50%, respectively.
For `Oc1nc(-c2ccccn2)nc2c(-c3ccccc3)csc12` [drawing 3625], the inhibition at 20 µM at Rho-A is 51 to 75%; on Rac-1 it was 51 to 75%; in assay [1], 25 to 50%.
Take `Oc1nc(-c2ccccn2)nc2cc(-c3ccccc3Cl)sc12` [drawing 3874]: the figures for the inhibition at 20 µM (at Rho-A; on Rac-1; in assay [1]) were 51 to 75%, 51 to 75% and 1 to 25%, respectively.
In the case of `CC(C(=O)Nc1ccnc(-c2ccccn2)n1)c1ccc(C#N)cc1` (stereo not drawn) [drawing 3683], the figures for the inhibition at 20 µM (at Rho-A; at Rac-1; in assay [1]) were 51 to 75%, 76 to 100% and 1 to 25%, respectively.
Take `COc1nc(-c2ccccn2)nc2c(C3CCC3)csc12` [drawing 3799]: the inhibition at 20 µM at Rho-A fell in the range of 76 to 100%; on Rac-1, 76 to 100%; in assay [1], 51 to 75%.
`O=C(c1csc2c(O)nc(-c3ccccn3)nc12)N1CCNC(c2ccccc2Cl)C1` (stereo not drawn) [drawing 3695]: the values for the inhibition at 20 µM (on Rho-A; on Rac-1; in assay [1]) were 76 to 100%, 76 to 100% and 25 to 50%, respectively.
`COc1cnc(CNC(=O)c2csc3nc(-c4ccccn4)nc(N)c23)[nH]c1=O` [drawing 3835]: the values for the inhibition at 20 µM (on Rho-A; at Rac-1; in assay [1]) were 51 to 75%, 25 to 50% and 25 to 50%, respectively.
With `COc1cnc(CNC(=O)c2sc3c(O)nc(-c4ccccn4)nc3c2C)[nH]c1=O` [drawing 3842], the inhibition at 20 µM on Rho-A is 1 to 25%; on Rac-1 it was 0%; in assay [1], 1 to 25%.
For `COc1cc(OC)cc(N2CCN(C(=O)c3csc4c(O)nc(-c5ccccn5)nc34)CC2)c1` [drawing 3646], the inhibition at 20 µM was 25 to 50% on Rho-A, 25 to 50% on Rac-1 and 0% in assay [1].
`N#Cc1ccc(N2CCN(C(=O)c3csc4c(O)nc(-c5ccccn5)nc34)CC2)cc1` [drawing 3645]: the inhibition at 20 µM at Rho-A was 51 to 75%; at Rac-1 it was 51 to 75%; in assay [1], 0%.
Turning to `Cc1cncc(-c2csc3c(O)nc(-c4ccccn4)nc23)c1` [drawing 3785], the inhibition at 20 µM on Rho-A lay within 25 to 50%; on Rac-1, 51 to 75%; in assay [1], 25 to 50%.
Turning to `Cc1c(-c2csc3c(O)nc(-c4ccccn4)nc23)cnn1C` [drawing 3824], the inhibition at 20 µM at Rho-A was in the range of 76 to 100%; at Rac-1, 76 to 100%; in assay [1], 51 to 75%.
For the molecule `O=C(c1csc2c(O)nc(-c3ccccn3)nc12)N1CCOC(c2cccc(F)c2)C1` (stereo not drawn) [drawing 3630], the inhibition at 20 µM on Rho-A fell in the range of 1 to 25%; at Rac-1 it was 25 to 50%; in assay [1] it was 25 to 50%.
Regarding `Oc1nc(-c2ccccn2)nc2c(-c3ccnn3-c3ccccn3)csc12` [drawing 3776], the inhibition at 20 µM is 25 to 50% on Rho-A, 25 to 50% at Rac-1 and 1 to 25% in assay [1].
`Cn1cnc(-c2nc(O)c3c(-c4ccccc4)c(-c4ccncc4)sc3n2)c1` [drawing 3846]: the inhibition at 20 µM on Rho-A is 0%; at Rac-1, 0%; in assay [1] it was 1 to 25%.
In the case of `O=C(NCCc1ccnc(O)c1)c1csc2nc(-c3ccccn3)nc(N3CCOCC3)c12` [drawing 3672], the inhibition at 20 µM at Rho-A lay within 25 to 50%; on Rac-1 it was 25 to 50%; in assay [1], 1 to 25%.
Take `COc1cnc(C2(N)CCCC2)nc1O` [drawing 3809]: the inhibition at 20 µM (at Rho-A; on Rac-1; in assay [1]) was 1 to 25% in each case.
For the molecule `COc1cnc(CNC(=O)c2csc3c(O)nc(-c4ccccn4)nc23)[nH]c1=O` [drawing 3838], the inhibition at 20 µM (at Rho-A; at Rac-1; in assay [1]) was 1 to 25% in each case.
For `CN(CCc1cccc(C#N)c1)C(=O)c1csc2nc(-c3ccccn3)nc(N3CCOCC3)c12` [drawing 3677], the results for the inhibition at 20 µM (on Rho-A; on Rac-1; in assay [1]) were 51 to 75%, 76 to 100% and 1 to 25%, respectively.
In the same order, the values of `Oc1nc(-c2ccccn2)nc2c(CC3CNC3)csc12` [drawing 3837] are 76 to 100%, 76 to 100% and 25 to 50%.
In the same order, the values of `Cc1sc2c(O)nc(-c3ccccn3)nc2c1C(=O)O` [drawing 3801] are 25 to 50%, 1 to 25% and 25 to 50%.
For the molecule `N#Cc1cccc(-c2csc3c(O)nc(-c4ccccn4)nc23)c1` [drawing 3822], the inhibition at 20 µM (on Rho-A; on Rac-1; in assay [1]) was 1 to 25% in each case.
Consider `N#Cc1cccc(N2CCN(C(=O)c3csc4c(O)nc(-c5ccccn5)nc34)CC2)c1` [drawing 3644], for which the figures for the inhibition at 20 µM (at Rho-A; on Rac-1; in assay [1]) were 51 to 75%, 51 to 75% and 1 to 25%, respectively.
Turning to `COc1cccc(CC2CN(C(=O)c3csc4c(O)nc(-c5ccccn5)nc34)CCN2)c1` (stereo not drawn) [drawing 3702], the inhibition at 20 µM at Rho-A was in the range of 51 to 75%; at Rac-1, 76 to 100%; in assay [1], 51 to 75%.
Regarding `Oc1nc(-c2ccccn2)nc2c(-c3ccc(OC4CCOC4)cc3)csc12` (stereo not drawn) [drawing 3734], the values for the inhibition at 20 µM (on Rho-A; at Rac-1; in assay [1]) were 76 to 100%, 51 to 75% and 25 to 50%, respectively.

For the origin of these results see patent US10940139B2, “Compounds that interact with the Ras superfamily for the treatment of cancers, inflammatory diseases, rasopathies, and fibrotic disease” (Shy Therapeutics LLC, priority 2017, dated 2021).
